In brackets after ≈: the same amount, converted by molar mass.
Assay: Inhibition of bacterial Metallo-beta-lactamase IMP-1 using nitrocefin as substrate pre-incubated for 15 mins followed by substrate addition by microplate reader
Parameters: species or system Bacteria

Structure (SMILES)	IC50 [µg/mL]
CC/C=C/C1=C(CCCOS(C)(=O)=O)C(=O)OC1=O	> 10
CC/C=C/C1=C(CCCOCc2ccccc2)C(=O)OC1=O	> 10
CC/C=C/C1=C(CCC(=O)O)C(=O)OC1=O	67.3 (≈ 300 µM)
CC/C=C/C1=C(CCCOC(C)=O)C(=O)OC1=O	5.9 (≈ 23.4 µM)

Source: ChEMBL document CHEMBL5236661, “A new selective inhibitor for IMP-1 metallo-β-lactamase, 3Z,5E-octa-3,5-diene-1,3,4-tricarboxylic acid-3,4-anhydride” (Bioorg Med Chem, 2023)
